# Tests used:
# [1] = biological target: Waterhemp (Amaranthus tuberculata) protoporphyrinogen oxidase (PPO), wild type; experiment: PPO enzyme assay (plastid extract); type: biochemical; conditions: 3 μM protogen; pH 7.4, 30° C.; read-out: S-3100 IC50
# [2] = test system: leaf discs of transgenic maize expressing H_N10 (SEQ ID NO: 4); experiment: Leaf disc assay, maize; type: in vivo; conditions: H_N10, construct 6; 1 micromolar
# Experimental: A leaf-disc assay was employed for rapid and minimally damaging assessment of herbicide tolerance in transgenic plants expressing a recombinant PPO enzyme. Leaf tissue was sampled from the youngest fully-green leaf of corn and soybean plants. Five 4-mm diameter leaf discs were cut from the leaf samples using a disposable biopsy punch with a plunger (Integra® Miltex®, Inc., York. Pennsylvania) and the leaf discs were placed into one ml of incubation solution (1 mM MES, pH 6.5, 1% w/v sucrose, 1% (v/v) acetone) in 24-well polystyrene plates with lids. For herbicide tolerance analysis, S-3100 was added to the incubation solution to a final concentration of 1 micromolar. Vacuum infiltration was applied and plates of leaf discs were incubated in continuous darkness for one day at room temperature (23-24° C.) followed by one (soybean) or two (corn) days continuous light incubation under overhead fluorescent and incandescent bulbs (520 uE) at 26-27° C. Leaf disc injury was then scored visually on a scale from 0 (lowest injury) to 4 (highest injury), with lower scores indicating better tolerance to the PPO herbicide.
structure (smiles),measurement,setting,value
"CCOC(=O)COc1ncccc1Oc1cc(-n2c(=O)cc(C(F)(F)F)n(C)c2=O)c(F)cc1Cl [S-3100, ethyl [3-2-chloro-4-fluoro-5-(1-methyl-6-trifluoromethyl-2,4-dioxo-1,2,3,4-tetrahydropyrimidin-3-yl)phenoxy]-2-pyridyloxylacetate]",IC50,[1],9 nM
same,average leaf disc score (0 lowest to 4 highest injury),[2],0.4
